From patent US10406120B2, “Methods and compositions for treating kidney disorders” (Golden Biotechnology Corporation, priority 2013, dated 2019)

Legend:
mononuclear leukocytes = assay: AcP-IgAN model: leukocyte infiltration in the kidney (IF/IHC); assay type: in vivo, B cell-deficient mice; details: AcP-IgAN mice
Method: (§1) B cell-deficient mice (B6.129S2-Igh-6tm1Cgn/J) were obtained from the Academia Sinica (Professor John T. Kung, Institute of Molecular Biology), and maintained at the animal center of the National Defense Medical Center, Taipei, Taiwan. AcP-IgAN was induced in the mice by daily injection of purified IgA anti-phosphorylcholine antibodies and pneumococcal C-polysaccharide (PnC) as described previously (Chao, et al., Kidney Int. 70:283-297; 2006). All animal experiments were performed with the approval of the Institutional Animal Care and Use Committee of The National Defense Medical Center, Taiwan, and were consistent with the NIH Guide for the Care and Use of Laboratory Animals.
For IHC, formalin fixed and paraffin embedded tissue sections or frozen sections were incubated with against IL-6 (R&D Systems, MN), MCP-1 (Santa Cruz, Calif.), F4/80 (monocytes/macrophages; Serotec, N.C.), collagen IV (Southern Biotech, AL), TGF-β1 (Santa Cruz), phopsho-NFκB p65 (Cell Signaling, MA), CD3 (pan-T cell; Serotec), CD4 (T helper cell; BioLegend, CA), CD8 (cytotoxic T cell), CD11b (macrophages/neutrophils), or CD11c (dendritic cells) (BD Biosciences, CA) antibodies. The FITC-conjugated, Alexa Fluor 488-conjugated (Invitrogen, CA) or horseradish peroxidase (HRP) conjugated secondary antibodies (DAKO, Denmark) were then applied to the sections. […]

Nrf2 [1] = assay: FSGS model: Western blot of nuclear Nrf2 in kidney; assay type: in vivo, BALB/c mice; details: FSGS mice, day 14 to day 21, vs control FSGS mice or normal controls
Method: (§2) Experiments described herein were performed on 8-week-old female BALB/c mice. The FSGS mice were injected intravenously with a single dose of adriamycin (0.1 mg/10 g body weight). The mice were given Compound 1 six hours before adriamycin injection by gavage daily till sacrifice. BALB/c mice intraperitoneal injected with normal saline were used as normal controls, while ASLN mice given vehicle (corn oil) by gavage were used as disease controls. Mice were killed at day 7, 14, or 21 after disease induction, and spleen, renal cortical tissue, and blood samples collected and stored appropriately until analysis. All animal experiments were performed with the ethical approval of the Institutional Animal Care and Use Committee of The National Defense Medical Center, Taiwan and performed according to the ethical rules in the NIH Guide for the Care and Use of Laboratory Animals.
(§3) The preparation of cytoplasmic and nuclear proteins of renal tissues was extracted using the Nuclear Extract Kit (Active Motif, Tokyo, Japan) according to the manufacturer's instructions. Target proteins in the cytoplasmic and/or nuclear fractions of kidney tissue were measured by Western blot analysis using rabbit antibodies against mouse Nrf2, or p47^phox (Santa Cruz). […]

Nrf2 [2] = assay: AcP-IgAN model: renal Nrf2 mRNA and protein; assay type: in vivo, B cell-deficient mice; details: AcP-IgAN mice, day 3 until day 28, vs control AcP-IgAN mice
Method: as §1
Nuclear proteins were extracted using a nuclear extract kit (Active Motif, Japan). Phospho-NF-κB p65 and nuclear factor-erythroid-2-related factor 2 (NrF2) were measured in renal tissue nuclear protein extracts using Trans-AM ELISA assay kits (Active Motif), according to the manufacturer's instructions. Renal cytosolic protein extracts using RIPA buffer (Cell signaling). Cytosolic glutathione peroxidase (GPx) (Cayman, Mich.) and cytosolic heme oxygenase-1 (HO-1) (Enzo Life Sciences, NY) were measured using commercial ELISA kits according to the manufacturer's instructions. Both were expressed relative to the protein concentration in the lysate. […]

[3] = system: NAD(P)H oxidase subunit p47^phox; assay: FSGS model: Western blot of cytosolic p47^phox in kidney; assay type: in vivo, BALB/c mice; details: FSGS mice, day 14 to day 21, vs control FSGS mice
Method: as §2, §3

[4] = based on a previous study and empirical use (Chang et al. 2008); cited from earlier work
MCP-1 = assay: AcP-IgAN model: renal MCP-1 mRNA and protein; assay type: in vivo, B cell-deficient mice; details: AcP-IgAN mice
Method: as §1
For IHC, formalin fixed and paraffin embedded tissue sections or frozen sections were incubated with against IL-6 (R&D Systems, MN), MCP-1 (Santa Cruz, Calif.), F4/80 (monocytes/macrophages; Serotec, N.C.), collagen IV (Southern Biotech, AL), TGF-β1 (Santa Cruz), phopsho-NFκB p65 (Cell Signaling, MA), CD3 (pan-T cell; Serotec), CD4 (T helper cell; BioLegend, CA), CD8 (cytotoxic T cell), CD11b (macrophages/neutrophils), or CD11c (dendritic cells) (BD Biosciences, CA) antibodies. The FITC-conjugated, Alexa Fluor 488-conjugated (Invitrogen, CA) or horseradish peroxidase (HRP) conjugated secondary antibodies (DAKO, Denmark) were then applied to the sections. Hematoxylin or 4′,6-diamidino-2-phenylindole (DAKO) was used in the counter staining for nuclei.
Total cortical kidney RNA was extracted with TriZOL reagents (Invitrogen) from cortical tissue of the kidney. For first-strand cDNA synthesis, 1.5 μg of total RNA was used in a single-round reverse transcriptase reaction. The reaction mixture consisted of 0.9 μl of Oligo (dT) 12 to 18 primer, 1.0 mM deoxyribonucleotide triphosphate (dNTP), 1 μl first strand buffer, 0.4 mM dithiothreitol, 80 U of RNaseout recombinant ribonuclease inhibitor, and 300 U of superscript II RNase H (Invitrogen). Real-time PCR was performed on an ABI Prism 7700 Sequence Detection System (Applied Biosystems, CA). […]

apoptosis in the kidney = assay: AcP-IgAN model: apoptosis in the kidney (TUNEL); assay type: in vivo, B cell-deficient mice
Method: as §1
For the detection of apoptosis, terminal deoxynucleotidyl transferase-mediated dUTP nick-end labeling (TUNEL) was employed. Formalin-fixed and paraffin-embedded tissue sections were stained with ApopTag plus peroxidase in situ apoptosis detection kit (Chemicon, CA) according to the manufacturer's instructions. For scoring, the cortical renal area (including glomerular and peri-glomerular areas) were examined and expressed as cells/glomerular cross-section.

IL-6 = assay: FSGS model: renal IL-6 (IHC); assay type: in vivo, BALB/c mice; details: FSGS mice, vs control FSGS mice
Method: as §2, with “All animal experiments were performed with the ethical approval of the Institutional Animal Care and Use Committee of The National Defense Medical Center, Taiwan and performed according to the ethical rules in the NIH Guide for the Care and Use of Laboratory Animals.” left out
For IHC, formalin-fixed and paraffin-embedded renal sections were prepared and incubated with primary antibodies against mouse Desmin (Lab Vision, CA, USA), CD3 (pan-T cell; Serotec, N.C., USA), F4/80 (monocytes/macrophages; Serotec), IL-6 (R&D Systems, MN, USA), NF-κB p65 (Cell Signaling Technology, MA, USA), collagen I, III, and IV (Southern Biotech, AL, USA), or TGF-β1 (Santa Cruz Biotechnology, CA, USA), biotinylated second antibodies (Dako, Glostrup, Denmark), and avidin-biotin-peroxidase complex (Dako). Semi-quantitative evaluation of staining was performed.

[5] = day 28, vs control AcP-IgAN mice

SMILES: COC1=C(OC)[C@H](O)[C@H](C/C=C(\C)CC/C=C(\C)CCC=C(C)C)[C@@H](C)C1=O [Compound 1, Antroquinonol]
- infiltration of pan-T cells, neutrophils and monocytes/macrophages in the kidney (mononuclear leukocytes; day 3): no detectable signals
- infiltration of inflammatory cells (CD3^+, CD4^+, CD8^+, CD11c+, F4/80+, CD11b+) in the kidney (mononuclear leukocytes; day 28, vs AcP-IgAN mice): significantly decreased infiltration
- Nrf2 translocation into nuclei (Nrf2 [1]): strongly augmented
- renal expression levels of mRNA of Nrf2 (Nrf2 [2]): greatly increased
- renal expression levels of protein of Nrf2 (Nrf2 [2]): greatly increased
- protein levels of NAD(P)H oxidase subunit p47^phox in kidney (increase in FSGS) [3]: abolished
- effective range [4]: 10-50 mg/kg body weight
- renal expression levels of mRNA and protein of MCP-1 (MCP-1; day 3): no such effect
- renal expression levels of mRNA of MCP-1 (MCP-1; [5]): significantly reduced
- renal expression levels of protein of MCP-1 (MCP-1; [5]): significantly reduced
- apoptosis in the kidney (TUNEL), increase (apoptosis in the kidney; AcP-IgAN mice, day 28, vs control AcP-IgAN mice): greatly inhibited
- apoptosis in the kidney (TUNEL) (apoptosis in the kidney; all the mice examined, day 3): inconspicuous apoptosis
- renal protein expression levels of IL-6 (IHC) (IL-6): significantly reduced
